We go through 6 molecules from patent publication US8486996B2, “Aroylfuranes and aroylthiophenes” (Basilea Pharmaceutica AG, priority 2006, dated 2013).

Type in all cases: cell-based
Experiment [1] can be described thus: Hoechst 33342 nuclear staining (48 h read-out). Summed up: (§1)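 Adherent cells pre-spread 24 h before dosing, suspension cells dosed at seeding; compounds at 0.001 μM-10 μM final, 48 h at culture conditions. Hoechst 33342 (2-5 μg/ml) added for 30 min, then fluorescence microscopy scoring of apoptotic nuclear fraction and apoptosis-specific morphology, reported as scores A-D.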

The subject of experiment [2] is tumor cells. As to the kind of experiment: Hoechst 33342 nuclear staining (48 h read-out). The gist of the method: as §1
Experiment [3] can be described thus: MTS proliferation assay (72 h read-out). To be noted: MRC5 cells. Summed up: (§2)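 Tumour cells (1.5×10^3–10^4 per well) were seeded 24 h before compound addition, then exposed to 0.001–10 μM final compound for 72 h under culture conditions. MTS reagent was added for a further 3 h, absorbance was read at 492 nm, and results were binned into scores A–D.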
(In general: Tetrazolium dyes change colour on reduction, which living cells bring about.)

Experiment [4] deals with tumor cells. As to the kind of experiment: MTS proliferation assay (72 h read-out). The gist of the method: as §2
A short description of experiment [5]: Mitochondrial membrane potential, JC-1 (read-out 48 h). To be noted: PBL, JC-1, 48 h. The gist of the method: (§3)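 Tumor cells were treated with test compounds (adherent cells after 24 h of attachment, suspension cells immediately), medium holding up to 5% DMSO. After 48 h, JC-1 (2-5 μg/ml in added medium) was applied for 30 min. Fluorescence microscopy (FITC/TRITC filters) scored the fraction of cells with dissipated mitochondrial membrane potential as categories A-D.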

Experiment [6] concerns tumor cells. The experiment is described as above. To be noted: JC-1, 48 h. The gist of the method:
as §3

The mark [7] stands for this setting: MRC5 cells, read-out: Hoechst 33342 nuclear staining EC50, MRC5.
[8] abbreviates: PBL, read-out: Hoechst 33342 nuclear staining EC50, PBL.
[9] abbreviates: HeLa cells, read-out: Hoechst 33342 nuclear staining EC50, HeLa.
Where [10] appears, read: Jily cells, read-out: Hoechst 33342 nuclear staining EC50, Jily.
Where [11] appears, read: Jurkat cells, read-out: Hoechst 33342 nuclear staining EC50, Jurkat.
[12] abbreviates: HT1080 cells, read-out: MTS proliferation assay IC50, HT1080.
The mark [13] stands for this setting: HeLa cells, read-out: MTS proliferation assay IC50, HeLa.
Setting [14] is: Jily cells, read-out: MTS proliferation assay IC50, Jily.
[15] abbreviates: Jurkat cells, read-out: MTS proliferation assay IC50, Jurkat.
Where [16] appears, read: HeLa cells, read-out: Mitochondrial membrane potential (read-out 48 h) HeLa.
Setting [17] is: Jily cells, read-out: Mitochondrial membrane potential (read-out 48 h) Jily.
Where [18] appears, read: Jurkat cells, read-out: Mitochondrial membrane potential (read-out 48 h) Jurkat.
Where [19] appears, read: MCF7 cells, read-out: Mitochondrial membrane potential (read-out 48 h) MCF7.

The structures appear in SMILES notation. Like-named read-outs stand apart in the source and are kept apart here.

`Nc1c(C(=O)c2cccnc2N2CCCNCC2)oc2ccc(Cl)cc12` [Example 84]: the EC50 in experiment [1] (setting [7]), in experiment [1] (setting [8]), in experiment [2] (setting [9]), in experiment [2] (setting [10]), in experiment [2] (setting [11]) and in experiment [5] was more than 1000 nM each time. The EC50 in experiment [6] (setting [16]), in experiment [6] (setting [17]), in experiment [6] (setting [18]) and in experiment [6] (setting [19]) was more than 1000 nM each time. The IC50 in experiment [3], in experiment [4] (setting [12]), in experiment [4] (setting [13]), in experiment [4] (setting [14]) and in experiment [4] (setting [15]) was more than 1000 nM in each case.

As for `CCOc1ccc(F)cc1C(=O)c1oc2ccccc2c1N` [Example 56], the EC50 in experiment [1] (setting [7]) was more than 1000 nM; in experiment [1] (setting [8]) it was more than 1000 nM; in experiment [2] (setting [9]), 100 to 1000 nM; in experiment [2] (setting [10]) it was 10 to 100 nM; in experiment [2] (setting [11]), 10 to 100 nM; in experiment [5], more than 1000 nM. The EC50 in experiment [6] (setting [16]) was 100 to 1000 nM; in experiment [6] (setting [17]), 100 to 1000 nM; in experiment [6] (setting [18]), 10 to 100 nM; in experiment [6] (setting [19]), 100 to 1000 nM. Further, the IC50 in experiment [3] is 10 to 100 nM; in experiment [4] (setting [12]) it was 10 to 100 nM; in experiment [4] (setting [13]), 10 to 100 nM; in experiment [4] (setting [14]), less than 10 nM; in experiment [4] (setting [15]) it was less than 10 nM.

In the case of `O=C(c1cc2cc(OCc3ccccc3)ccc2o1)c1cc(F)ccc1N1CCCCC1` [Example 110], the EC50 in experiment [1] (setting [7]), in experiment [1] (setting [8]), in experiment [2] (setting [9]), in experiment [2] (setting [10]), in experiment [2] (setting [11]) and in experiment [5] was more than 1000 nM each time. Moreover, the EC50 in experiment [6] (setting [16]), in experiment [6] (setting [17]), in experiment [6] (setting [18]) and in experiment [6] (setting [19]) was more than 1000 nM each time. Also, the IC50 in experiment [3], in experiment [4] (setting [12]), in experiment [4] (setting [13]), in experiment [4] (setting [14]) and in experiment [4] (setting [15]) was more than 1000 nM throughout.

On to `CCOc1ccc(F)cc1C(=O)c1cc2cc(OC(=O)N(C)C)ccc2o1` [Example 72], for which the EC50 in experiment [1] (setting [7]) is more than 1000 nM; in experiment [1] (setting [8]), more than 1000 nM; in experiment [2] (setting [9]) it was more than 1000 nM; in experiment [2] (setting [10]), 100 to 1000 nM; in experiment [2] (setting [11]) it was 100 to 1000 nM; in experiment [5], more than 1000 nM. Besides, the EC50 in experiment [6] (setting [16]) is more than 1000 nM; in experiment [6] (setting [17]), 100 to 1000 nM; in experiment [6] (setting [18]) it was 100 to 1000 nM; in experiment [6] (setting [19]), more than 1000 nM. The IC50 in experiment [3], in experiment [4] (setting [12]), in experiment [4] (setting [13]) and in experiment [4] (setting [14]) was 100 to 1000 nM in each case.

Turning to `COc1ccc2oc(C(=O)c3cccnc3N3CCCC(C)C3)cc2c1` (centres unmarked) [Example 87], the EC50 in experiment [1] (setting [7]) was 100 to 1000 nM; in experiment [1] (setting [8]), more than 1000 nM; in experiment [2] (setting [9]), 100 to 1000 nM; in experiment [2] (setting [10]) it was 100 to 1000 nM; in experiment [2] (setting [11]) it was 100 to 1000 nM; in experiment [5], more than 1000 nM. For the same molecule, the EC50 in experiment [6] (setting [16]), in experiment [6] (setting [17]), in experiment [6] (setting [18]) and in experiment [6] (setting [19]) was 100 to 1000 nM in each case. In addition, the IC50 is 10 to 100 nM in experiment [3]; 10 to 100 nM in experiment [4] (setting [12]); 10 to 100 nM in experiment [4] (setting [13]); 10 to 100 nM in experiment [4] (setting [14]); less than 10 nM in experiment [4] (setting [15]).

On to `Nc1c(C(=O)c2cc(F)ccc2N2CC=CCC2)oc2ccc(Cl)cc12` [Example 103], for which the EC50 is 10 to 100 nM in experiment [1] (setting [7]); more than 1000 nM in experiment [1] (setting [8]); 10 to 100 nM in experiment [2] (setting [9]); 10 to 100 nM in experiment [2] (setting [10]); 10 to 100 nM in experiment [2] (setting [11]); more than 1000 nM in experiment [5]. In addition, the EC50 in experiment [6] (setting [16]), in experiment [6] (setting [17]), in experiment [6] (setting [18]) and in experiment [6] (setting [19]) was 10 to 100 nM throughout. The IC50 in experiment [3], in experiment [4] (setting [12]), in experiment [4] (setting [13]), in experiment [4] (setting [14]) and in experiment [4] (setting [15]) was 10 to 100 nM in each case.
